Activity calls are given as the source filed them. The rule behind the calls is not given here.
Tests used:
A549 [1] = test: Cytotoxicity against human A549 cells assessed as reduction in cell viability incubated for 72 hrs by resazurin dye based assay; format: functional; details: A549, 72 h
[2] = Selectivity index, ratio of IC50 for human HaCaT cells to IC50 for human T24 cells; format: toxicity; details: HaCaT cells versus T24 cells, read-out: Ratio IC50
T-24 = test: Cytotoxicity against human T24 cells assessed as reduction in cell viability incubated for 72 hrs by resazurin dye based assay; format: functional; details: T-24, 72 h
[3] = Cytotoxicity against human Arec32 cells assessed as cell viability by MTT assay; format: toxicity, cell-based
[4] = Selectivity index, ratio of IC50 for human HaCaT cells to IC50 for human A549 cells; format: toxicity; details: HaCaT cells versus A549 cells, read-out: Ratio IC50
[5] = Selectivity index, ratio of IC50 for human HaCaT cells to IC50 for human MeWo cells; format: toxicity; details: HaCaT cells versus MeWo cells, read-out: Ratio IC50
MeWo = test: Cytotoxicity against human MeWo cells assessed as reduction in cell viability incubated for 72 hrs by resazurin dye based assay; format: functional
[6] = Cytotoxicity against human HaCaT cells assessed as reduction in cell viability incubated for 72 hrs by resazurin dye based assay; format: toxicity
Arec32 [7] = test: Induction of Nrf2 activity in human Arec32 cells assessed as drug concentration required to double luciferase expression incubated for 24 hrs by luminescence based plate reader analysis; format: cell-based; details: filed as activator
Arec32 [8] = test: Induction of Nrf2 activity in human Arec32 cells assessed as increase in luciferase expression at >30 uM incubated for 24 hrs by luminescence based plate reader analysis; format: cell-based
A549 [9] = test: Cytotoxicity against human A549 cells assessed as inhibition of cell growth incubated for 72 hrs by MTT assay; format: functional, cell-based; details: A549, 72 h

SMILES | IC50 (A549 [1]) | selectivity ratio [2] | IC50 (T-24) | EC50 [3] | selectivity ratio [4] | selectivity ratio [5] | IC50 (MeWo) | IC50 at 72 h [6] | CD (Arec32 [7]) | Activity (Arec32 [8]) | IC50 (A549 [9])
CCS(=O)(=O)[C@@H]1[C@@H](OC(C)=O)[C@H](N=C=S)O[C@H](COC(C)=O)[C@H]1OC(C)=O | 54.7 µM | 2 | 18 µM | > 30 µM | 0.6 | 1.1 | 33 µM | 35.2 µM | 10.4 µM | – | –
CC(=O)OC[C@H]1O[C@@H](N=C=S)[C@H](OC(C)=O)[C@@H]([S+](C)[O-])[C@@H]1OC(C)=O (mixture of isomers) | 183 µM | 1.1 | 159 µM | > 30 µM | 1 | 1 | 178 µM | 180 µM | 5.75 µM | – | –
CC(=O)OC[C@H]1O[C@@H](N=C=S)[C@H](OC(C)=O)[C@@H](Sc2ccccc2)[C@@H]1OC(C)=O | 24.9 µM | 1.2 | 19.4 µM | > 30 µM | 1 | 0.9 | 29.1 µM | 23.2 µM | – | inactive | –
CS[C@@H]1[C@@H](OC(C)=O)[C@H](N=C=S)O[C@H](COC(C)=O)[C@H]1OC(C)=O | 47.9 µM | 1.5 | 30.9 µM | > 30 µM | 0.9 | 1 | 47 µM | 45.3 µM | – | inactive | –
CS(=O)(=O)CCCN=C=S | 25.2 µM | 3.3 | 10.7 µM | > 30 µM | 1.9 | 1.3 | 29.5 µM | 35.9 µM | 3.22 µM | – | –
CC(=O)OC[C@H]1O[C@@H](N=C=S)[C@H](OC(C)=O)[C@@H](S(=O)(=O)c2ccccc2)[C@@H]1OC(C)=O | 40.3 µM | 1.6 | 16.8 µM | > 30 µM | 0.7 | 1.2 | 22.9 µM | 27.5 µM | 2.09 µM | – | –
CC(=O)OC[C@H]1O[C@@H](N=C=S)[C@H](OC(C)=O)[C@@H]([S@+]([O-])c2ccccc2)[C@@H]1OC(C)=O | 58.9 µM | 1.3 | 48.9 µM | > 30 µM | 1 | 1.1 | 57.4 µM | 61.2 µM | 2.09 µM | – | –
CSCCCN=C=S | 31.1 µM | 3.2 | 14.4 µM | > 30 µM | 1.7 | 1.5 | 31.6 µM | 43.9 µM | 2.94 µM | – | 48 µM
CC(=O)OC[C@H]1O[C@@H](N=C=S)[C@H](OC(C)=O)[C@@H](OC(C)=O)[C@@H]1OC(C)=O | 64.6 µM | 1.5 | 48.7 µM | > 30 µM | 1.1 | 1.2 | 58.1 µM | 71.4 µM | – | inactive | –
CC(=O)OC[C@H]1O[C@@H](N=C=S)[C@H](OC(C)=O)[C@@H](S(C)(=O)=O)[C@@H]1OC(C)=O | 62.8 µM | 2 | 19.9 µM | > 30 µM | 0.6 | 1.2 | 39 µM | 40.1 µM | 6.21 µM | – | –
Nc1ccn([C@@H]2O[C@H](CO)[C@@H](O)C2(F)F)c(=O)n1 [GEMCITABINE] | 3 µM | 4.2 | 2.1 µM | – | 2.6 | 1.6 | 5.2 µM | 7.1 µM | – | – | –
CCS[C@@H]1[C@@H](OC(C)=O)[C@H](N=C=S)O[C@H](COC(C)=O)[C@H]1OC(C)=O | 48.8 µM | 1.5 | 31.5 µM | > 30 µM | 0.9 | 0.9 | 50 µM | 46.3 µM | – | inactive | –
CC(=O)OC[C@H]1O[C@@H](N=C=S)[C@H](OC(C)=O)[C@@H]([S@@+]([O-])c2ccccc2)[C@@H]1OC(C)=O | 74.9 µM | 1.1 | 56.7 µM | > 30 µM | 0.8 | 0.9 | 67.5 µM | 59.1 µM | 1.55 µM | – | –
CC(C)(C)c1cc(O)ccc1O [E319] | – | – | – | > 30 µM | – | – | – | – | 1.68 µM | – | –
C[S+]([O-])CCCN=C=S (racemic) | 20.7 µM | 2.9 | 12.2 µM | > 30 µM | 1.8 | 1 | 32.8 µM | 33 µM | 3.12 µM | – | 30.2 µM
CC[S+]([O-])[C@@H]1[C@@H](OC(C)=O)[C@H](N=C=S)O[C@H](COC(C)=O)[C@H]1OC(C)=O (mixture of isomers) | 155 µM | 1.1 | 113 µM | > 30 µM | 0.9 | 1.1 | 118 µM | 141 µM | 6.32 µM | – | –

Reference: ChEMBL document CHEMBL6109107, “Exploring the broad-spectrum activity of carbohydrate-based Iberin analogues: From anticancer effect to antioxidant properties” (Eur J Med Chem, 2025)
